The nature of data set [1]: Curcumin-SR dissolution test (SGF then SIF). The class given is physicochemical. As to conditions: simulated gastric and intestinal fluids. The procedure: The in vitro dissolution study was performed using the Varian 7020 dissolution tester with the basket configuration at 37° C., 100 rpm. The samples equivalent to 25 mg Curcumin filled in hard gelatin capsules were used for the study. The capsules were introduced into 750 ml of 0.1N HCl (simulated gastric fluid without enzymes, SGF) maintained at 37° C. At the end of 1 and 2 hrs, 3 ml of the sample was withdrawn and filtered through 10μ-syringe filter. The removed volume was replaced each time with fresh medium. At the end of 2 hr, the pH of the medium was adjusted to 6.5 (simulated intestinal fluid without enzymes, SIF) with 195 ml of 0.2M tribasic sodium phosphate solution equilibrated to 37° C. Polysorbate 80 dissolved in 55 ml of water was added to a concentration of 0.25% to simulate intestinal fluid. Aliquots were withdrawn at 4, 6, 9, and 12 hrs for analysis, as described before, and the removed volume was replaced with fresh medium each time. The aliquots were diluted with methanol for the HPLC analysis of Curcumin. Curcumin was quantified using reverse-phase HPLC on a Phenomenex Luna column (150×4.6 mm, 5 μm) at room temperature. The samples were eluted using an isocratic mobile phase consisting of 5% acetic acid/45% and acetronitrile/55%. The flow rate was 1 ml/min and detection wavelength was 420 nm. Standard Curcumin from Chromadex was used for quantification. […]

Data set [2] is described as follows: Curcumin-SR bioavailability pilot human uptake study. The class given is in vivo. As to conditions: plasma Curcumin, 250 mg total Curcuminoids oral, 0-9 hr. On the procedure:
(§1) Curcumin-SR formulation and Curcumin powder equivalent to 250 mg total Curcuminoids were used for the study. The samples were provided in hard gelatin capsules. The crossover study was done using two healthy subjects who were not using curcumin in their food preparations or consuming Curcumin supplements. On the day of the study, 7 ml of blood was collected in EDTA tubes to permit establishment of baseline value. Curcumin-SR capsules were administered after breakfast and blood samples were drawn as before at 1, 2, 4, 7, and 9 hrs post-dose. The samples were stored on ice protected from light and the plasma was separated by centrifugation within 1 hr of collection and stored at −70° C. until analysis. After a 7-day washout period the protocol was repeated for the control Curcumin powder capsules.
Hydrolysis of Curcumin conjugates and extraction of Curcumin from the plasma were done based on the method described by Vareed et at. (Pharamcokinetics of curcumin conjugate metabolites in healthy human subjects, Cancer Epidemiol Biomarkers, 17: 1411-1417, 2008). One ml of the plasma was incubated with 2000 units of β-glucuronidase and 260 units sulfatase at 37° C. for 3.5 hrs. The samples were extracted three times with ethyl acetate/methanol (95:5) and the solvents were evaporated under nitrogen protected from light. […] Curcumin was quantified using reverse-phase HPLC as described above.

Data set [3] is described as follows: Resveratrol-SR bioavailability pilot human uptake study. The class given is in vivo. As to conditions: plasma free Resveratrol, 500 mg oral, 0-24 hr. On the procedure:
Resveratrol-SR formulation and 98% Resveratrol powder equivalent to 500 mg Resveratrol were used for the study. The samples were provided in hard gelatin capsules. The crossover study was done using two healthy subjects who were not consuming Resveratrol supplements. The subjects were asked not to consume Resveratrol containing foods, such as, peanuts grapes and wine, for 48 hours before the study. On the day of the study, 7 ml of blood was collected in EDTA tubes to permit establishment of baseline value. Resveratrol-SR capsules were administered after breakfast and blood samples were drawn as before at 1, 2, 4, 7, 9, and 24 his post-dose. The samples were stored on ice protected from light and the plasma was separated by centrifugation within 1 hr of collection and stored at −70° C. until analysis. After a 7-day washout period the protocol was repeated for the control Resveratrol powder capsules. Plasma total Resveratrol (Resveratrol conjugates and free Resveratrol) and free Resveratrol were determined based on the method described by Meng et al. (Urinary and plasma levels of resveratrol and quercetin in humans, mice and rats after ingestion of pure compounds and grape juice, J. Agric. Food Chem., 52: 935-942, 2004). […] Resveratrol was quantified using reverse-phase HPLC as described above.

Data set [4] in a line: Resveratrol-SR dissolution test (SGF then SIF). The class given is physicochemical. The settings on record: sink conditions, SGF 2 hr then SIF pH 6.5, 25 mg Resveratrol. The procedure:
The in vitro dissolution study was performed using the Varian 7020 dissolution tester with the basket configuration at 37° C., 100 rpm. The samples equivalent to 25 mg Resveratrol filled in hard gelatin capsules were used for the study. The capsules were introduced into 750 ml of 0.1N HCl (simulated gastric fluid without enzymes, SGF) maintained at 37° C. […] The removed volume was replaced each time with fresh medium. […] Polysorbate 80 dissolved in 55 ml of water was added to a concentration of 0.25% to simulate intestinal fluid. Aliquots were withdrawn at 4, 6, 9, and 12 hrs for analysis as described before and the removed volume was replaced with fresh medium each time. The aliquots were diluted with methanol for HPLC analysis. Resveratrol was quantified using reverse-phase HPLC on a Phenomenex Prodigy column (250×4.6 mm, 5 μm) at room temperature. The samples were eluted using an isocratic mobile phase consisting of 5% acetic acid/55% and methaniol/45%. The flow rate was 1 ml/min and detection wavelength was 306 nm. The retention time for Resveratrol was 7.5 min under these conditions. Standard Resveratrol from Sigma was used for calibration.

The nature of data set [5]: PQQ-SR dissolution test (SGF then SIF). The data set is classed as physicochemical. As to conditions: SGF 2 hr then SIF pH 6.5, 20 mg PQQ. On the procedure:
The in vitro dissolution study was performed using the Varian 7020 dissolution tester with the basket configuration at 37° C., 100 rpm. The samples equivalent to 20 mg PQQ filled in hard gelatin capsules were used for the study. The capsules were introduced into 750 ml of 0.1N HCl (simulated gastric fluid without enzymes, SGF) maintained at 37° C. At the end of 1 and 2 hrs, 2 ml of the sample was withdrawn and filtered through 10μ-syringe filter. The removed volume was replaced each time with fresh medium. PQQ was determined by spectrophotometry at 330 nm.
At the end of 2 hr, the pH of the medium was adjusted to 6.5 (Simulated intestinal fluid without enzymes, SIF) with an appropriate amount of 0.2M tribasic sodium phosphate solution equilibrated to 37° C., Polysorbate 80 at 0.25% (simulating fed state) dissolved in water was added to the medium. Aliquots were withdrawn at 4, 6, 9, and 12 hrs for analysis as described before and the removed volume was replaced with fresh medium each time.

The nature of data set [6]: PQQ-SR bioavailability pilot human uptake study. The class given is in vivo. The settings on record: free plasma PQQ. On the procedure:
as §1, with “PQQ-SR” for “Curcumin-SR”, “PQQ” for “Curcumin”, “40” for “250”, “PQQ” for “total Curcuminoids”, “subjects.” for “subjects who were not using curcumin in their food preparations or consuming Curcumin supplements.”
Plasma PQQ was extracted using n-butanol and HCl followed by SepPak C-18 clean up of the extract as described by Suzuki et al. (Extractions of pyrroloquinoline quinone from crude biological samples, Suzuki, O., et al., Life Sci., 47: 2135-41, 1990). PQQ was estimated by using the enzymatic method as described by Geiger and Gorisch (Enzymatic determination of pyrroloquinoline quinone using crude membranes from E. coli, Geiger, O. and Gorisch, H., Anal Biochem., 164: 418-23, 1987). The method measures only the free PQQ in the plasma.

The conditions of data set [7]: human studies, background; cited from earlier work.

The structures appear in SMILES notation.

Turning to `COc1cc(/C=C/C(=O)CC(=O)/C=C/c2ccc(O)c(OC)c2)ccc1O` [Curcumin powder, Curcumin], the “dissolution profile in words” value in data set [1] is “very little is micronized or released at the gastric pH”. In addition, in data set [2], the “average area under the curve AUC0-9hr” value is 47.78 ng·h/mL.

`Oc1ccc(/C=C/c2cc(O)cc(O)c2)cc1` [Resveratrol powder, 3,4′,5-trihydroxy-trans-stilbene]: the “average area under the curve AUC0-24hr for free Resveratrol” value in data set [3] came out at 2290 ng·h/mL. In addition, the “dissolution of dose in 4 hours” value in data set [4] worked out at 100%.

Usually Tmax stands for the time at which the peak concentration occurs. Turning to `O=C(O)c1cc(C(=O)O)c2c(n1)C(=O)C(=O)c1cc(C(=O)O)[nH]c1-2` [control PQQ powder, Pyrroloquinoline quinone], the “dose in solution by 4 hrs” value in data set [5] is reported as 100%. For the same molecule, in data set [6], the “time by which plasma level reached near baseline” value was not above 9 h. Moreover, in data set [6] (40 mg oral, 0-9 hr), the “average area under the curve AUC0-9hr” value is 31.41 ng·h/mL. Further, in data set [6] (human, 40 mg PQQ oral, two healthy subjects), the Tmax amounted to 2 h. In addition, in data set [7], the “time after ingestion at which maximum plasma level was reached” value was 2 h and the “time by which levels reached baseline” value was not above 8 h.

These data come from US12564585B2, “Nutraceuticals having sustained release for improved bioavailability and method of production” (BioActives LLC, priority 2013, dated 2026).
